Experimental data taken from patent publication US20110190503A1, “Thiazolopyridin-2-yloxy-phenyl and thiazolopyrazin-2-yloxy-phenyl amines as modulators of leukotriene A4 hydrolase” (Janssen Pharmaceutical NV, priority 2008, published 2011).
Read-outs that look alike come from different tables or passages of the source.

Experiments:
[1] = system: LTB4 production by calcium ionophore-stimulated human blood; assay: LTB4 production by calcium ionophore-stimulated human blood for LTA4H inhibitor activity; format: cell-based
Protocol: Assay 3: LTB4 Production by Calcium Ionophore-Stimulated Human Blood for LTA4H Inhibitor Activity
Human blood was collected from healthy donors in heparin-containing syringes. The blood was diluted 1:1 with RPMI-1640 medium, and 200-μL aliquots of the diluted blood were added to wells of a 96-well microtiter plate. LTA4H inhibitor test compounds were prepared at different concentrations in RPMI-1640 medium containing 1% DMSO, and 20 μL of each test solution was added to a well containing diluted whole blood (final DMSO concentration of 0.1%). After the microtiter plate contents were incubated for 15 min at 37° C. in a humidified incubator, calcium ionophore A23187 (Sigma Chemical Co., St. Louis, Mo.) was added to each sample well (final concentration=7 μg/mL). The incubation was continued under the same conditions for an additional 30 min to allow LTB4 formation. The reaction was terminated by centrifugation (833×g, 10 min at 4° C.), and supernatants were analyzed for LTB4 by a commercially available enzyme-linked immunoassay (Cayman Chemical Co.) according to the manufacturer's instructions. Positive controls, under essentially identical conditions but without addition of an inhibitor compound, and negative unstimulated controls, containing all assay components except calcium ionophore, were routinely run in each experiment. IC50 values for compounds tested in this assay were determined by nonlinear regression of the activity data at different compound concentrations using Graphpad Prism 4.0, one site binding competition, and are presented in Table 3. The number of determinations made is indicated in parentheses following each value.

[2] = system: LTB4 production by calcium ionophore-stimulated murine blood; assay: LTB4 production by calcium ionophore-stimulated murine blood for LTA4H inhibitor activity; format: cell-based, CD-1 mice; conditions: Mus musculus
How it was run: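 Heparinized CD-1 mouse blood pre-incubated with compound 15 min at 37° C, then stimulated with calcium ionophore A23187 (7 μg/mL final) for 30 min. LTB4 in supernatant measured by enzyme immunoassay; values are single or averaged determinations, with SD for n≥3.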

[3] = human blood diluted 1:1, calcium ionophore A23187, LTB4 by immunoassay, n in parentheses, read-out: IC50
[4] = murine blood diluted 1 in 15, calcium ionophore A23187, LTB4 by immunoassay, read-out: IC50

Row | Structure (SMILES) | IC50 [1, 3] [nM] | IC50 [2, 4] [nM] | IC50 ([1]; Homo sapiens) [nM] | IC50 [2] [nM]
1 | O=C1CCCN1C1CCN(CCOc2ccc(Oc3nc4ncccc4s3)cc2)CC1 [Example 32, 1-(1-{2-[4-([1,3]Thiazolo[4,5-b]pyridin-2-yloxy)phenoxy]ethyl}piperidin-4-yl)pyrrolidin-2-one] | 8 | 22 | – | –
2 | CC(=O)N1C[C@@H]2C[C@H]1CN2CCc1ccc(Oc2nc3ncccc3s2)cc1 [Example 75, 2-(4-{2-[(1S,4S)-5-Acetyl-2,5-diazabicyclo[2.2.1]hept-2-yl]ethyl}phenoxy)[1,3]thiazolo[4,5-b]pyridine] | 299 | 44 | – | –
3 | NC(=O)N1C[C@@H]2C[C@H]1CN2Cc1ccc(Oc2nc3ncccc3s2)cc1 [Example 106, (1S,4S)-5-[4-([1,3]Thiazolo[4,5-b]pyridin-2-yloxy)benzyl]-2,5-diazabicyclo[2.2.1]heptane-2-carboxamide] | 141 | 79 | – | –
4 | CC(=O)N1C[C@H]2C[C@@H]1CN2CCOc1ccc(Oc2nc3ncccc3s2)cc1 [Example 267, 2-(4-{2-[(1R,4R)-5-Acetyl-2,5-diazabicyclo[2.2.1]hept-2-yl]ethoxy}phenoxy)[1,3]thiazolo[4,5-b]pyridine] | 57 | 110 | – | –
5 | CC(=O)N1C[C@H]2CC[C@@H](C1)N2CCc1ccc(Oc2nc3ncccc3s2)cc1 [Example 55, meso-2-(4-{2-[3-Acetyl-3,8-diazabicyclo[3.2.1]oct-8-yl]ethyl}phenoxy)[1,3]thiazolo[4,5-b]pyridine] | 99 | 55 | – | –
6 | CC(=O)N[C@@H]1C[C@H]2CC[C@@H](C1)N2Cc1ccc(Oc2nc3ncccc3s2)cc1 [Example 109, meso-N-{(3-exo)-8-[4-([1,3]Thiazolo[4,5-b]pyridin-2-yloxy)benzyl]-8-azabicyclo[3.2.1]oct-3-yl}acetamide] | – | – | 87 | 60
7 | NC(=O)N1C[C@@H]2C[C@H]1CN2CCc1ccc(Oc2nc3ncccc3s2)cc1 [Example 45, (1S,4S)-5-{2-[4-([1,3]Thiazolo[4,5-b]pyridin-2-yloxy)phenyl]ethyl}-2,5-diazabicyclo[2.2.1]heptane-2-carboxamide] | 256 | 170 | – | –
8 | CC(=O)N1CC2CN(CCc3ccc(Oc4nc5ncccc5s4)cc3)CC2C1 (stereo not drawn) [Example 73, 2-{4-[2-(5-Acetylhexahydropyrrolo[3,4-c]pyrrol-2(1H)-yl)ethyl]phenoxy}[1,3]thiazolo[4,5-b]pyridine] | 227 | 50 | – | –
9 | O=C1CCCN1C1CCN(Cc2ccc(Oc3nc4ncccc4s3)cc2)CC1 [Example 83, 1-{1-[4-([1,3]Thiazolo[4,5-b]pyridin-2-yloxy)benzyl]piperidin-4-yl}pyrrolidin-2-one] | 134 | 55 | – | –
10 | CC(=O)N1C[C@@H]2C[C@H]1CN2CCOc1ccc(Oc2nc3ncccc3s2)cc1 [Example 14, 2-(4-{2-[(1S,4S)-5-Acetyl-2,5-diazabicyclo[2.2.1]hept-2-yl]ethoxy}phenoxy)[1,3]thiazolo[4,5-b]pyridine] | 79 | 18 ± 13 | – | –
11 | NC(=O)N1C[C@H]2C[C@@H]1CN2Cc1ccc(Oc2nc3ncccc3s2)cc1 [Example 266, (1R,4R)-5-[4-([1,3]Thiazolo[4,5-b]pyridin-2-yloxy)benzyl]-2,5-diazabicyclo[2.2.1]heptane-2-carboxamide] | 154 | 140 | – | –
12 | CC(=O)N[C@H]1C[C@H]2CC[C@@H](C1)N2Cc1ccc(Oc2nc3ncccc3s2)cc1 [Example 116, meso-N-{(3-endo)-8-[4-([1,3]Thiazolo[4,5-b]pyridin-2-yloxy)benzyl]-8-azabicyclo[3.2.1]oct-3-yl}acetamide] | – | – | 19 | 22 ± 17
13 | NC(=O)C1CCN(CCOc2ccc(Oc3nc4ncccc4s3)cc2)CC1 [Example 31, 1-{2-[4-([1,3]Thiazolo[4,5-b]pyridin-2-yloxy)phenoxy]ethyl}piperidine-4-carboxamide] | 53 | 31 | – | –
14 | CC(=O)N1C[C@@H]2C[C@H]1CN2Cc1ccc(Oc2nc3ncc(C)cc3s2)cc1 [Example 121, 2-(4-{[(1S,4S)-5-Acetyl-2,5-diazabicyclo[2.2.1]hept-2-yl]methyl}phenoxy)-6-methyl[1,3]thiazolo[4,5-b]pyridine] | 88 | 120 ± 42 | – | –
15 | CC(=O)N1C[C@H]2C[C@@H]1CN2Cc1ccc(Oc2nc3ncccc3s2)cc1 [Example 265, 2-(4-{[(1R,4R)-5-Acetyl-2,5-diazabicyclo[2.2.1]hept-2-yl]methyl}phenoxy)[1,3]thiazolo[4,5-b]pyridine] | 72 | 23 | – | –
